From publication doi:10.1101/2024.08.19.608619, “Discovery of potent SARS-CoV-2 nsp3 macrodomain inhibitors uncovers lack of translation to cellular antiviral response” (bioRxiv, 2024)
In brackets after ≈: the same amount, converted by molar mass. Several values for one entry are separate records, joined by “and”; a condition that tells them apart may be missing. Equal values may be shown once.

System: HeLa-ACE2 cells
Test: not given
Details: protocol HeLa-ACE2 cytotoxicity

Question: What does the source list for CNC(=O)c1cccc(-c2cc3c(N[C@H](c4ccc5c(c4)S(=O)(=O)CCC5)C(C)C)ncnc3[nH]2)c1 (single isomer, unassigned) [ASAP-0012338]?
Answer: CC50: > 20 µM; cc10: > 20.0 µM

Question: Which results are given for CNC(=O)c1cc2c(N[C@@H](c3ccc4c(c3)S(=O)(=O)CCC4)C(C)C)ncnc2[nH]1 (single isomer, unassigned) [ASAP-0012346]?
Answer: CC50: > 20 µM; cc10: > 20.0 µM

Same assay, conditions: protocol HeLa-ACE2 cytotoxicity; highest measured response of the dose series

Question: Which perc_max_measured does the source give for CNC(=O)c1cccc(-c2cc3c(N[C@H](c4ccc5c(c4)S(=O)(=O)CCC5)C(C)C)ncnc3[nH]2)c1 (single isomer, unassigned) [ASAP-0012338] here?
Answer: Its perc_max_measured is 103.266%.

Question: Which perc_max_measured does the source give for CNC(=O)c1cc2c(N[C@@H](c3ccc4c(c3)S(=O)(=O)CCC4)C(C)C)ncnc2[nH]1 (single isomer, unassigned) [ASAP-0012346] here?
Answer: The perc_max_measured was 108.34%.

Same assay, conditions: protocol HeLa-ACE2 cytotoxicity; lowest measured response of the dose series

Question: Which perc_min_measured does the source give for CNC(=O)c1cccc(-c2cc3c(N[C@H](c4ccc5c(c4)S(=O)(=O)CCC5)C(C)C)ncnc3[nH]2)c1 (single isomer, unassigned) [ASAP-0012338] here?
Answer: The perc_min_measured was 80.243%.

Question: With CNC(=O)c1cc2c(N[C@@H](c3ccc4c(c3)S(=O)(=O)CCC4)C(C)C)ncnc2[nH]1 (single isomer, unassigned) [ASAP-0012346] as the compound, how does the perc_min_measured read?
Answer: The perc_min_measured was 94.319%.

System: SARS-CoV-2, isolate USA-WA1/2020
Test: microbe, parasite or virus in culture
Format: cell-based
Details: HeLa-ACE2 SARS-CoV-2 antiviral effect without P-gp inhibitor; maximum measured response of dose series

Question: For CNC(=O)c1cccc(-c2cc3c(N[C@H](c4ccc5c(c4)S(=O)(=O)CCC5)C(C)C)ncnc3[nH]2)c1 (single isomer, unassigned) [ASAP-0012338], which perc_max_measured is on record?
Answer: The perc_max_measured was 112.086%.

Question: With CNC(=O)c1cc2c(N[C@@H](c3ccc4c(c3)S(=O)(=O)CCC4)C(C)C)ncnc2[nH]1 (single isomer, unassigned) [ASAP-0012346] as the compound, how does the perc_max_measured read?
Answer: The perc_max_measured was 104.869%.

Same assay, conditions: HeLa-ACE2 SARS-CoV-2 antiviral effect without P-gp inhibitor; minimum measured response of dose series

Question: Which perc_min_measured does the source give for CNC(=O)c1cccc(-c2cc3c(N[C@H](c4ccc5c(c4)S(=O)(=O)CCC5)C(C)C)ncnc3[nH]2)c1 (single isomer, unassigned) [ASAP-0012338] here?
Answer: The perc_min_measured was 84.591%.

Question: Which perc_min_measured does the source give for CNC(=O)c1cc2c(N[C@@H](c3ccc4c(c3)S(=O)(=O)CCC4)C(C)C)ncnc2[nH]1 (single isomer, unassigned) [ASAP-0012346] here?
Answer: The perc_min_measured was 90.681%.

Same assay, conditions: HeLa-ACE2 SARS-CoV-2 antiviral effect without P-gp inhibitor; read-out: ec50

Question: Which EC50 does the source give for CNC(=O)c1cccc(-c2cc3c(N[C@H](c4ccc5c(c4)S(=O)(=O)CCC5)C(C)C)ncnc3[nH]2)c1 (single isomer, unassigned) [ASAP-0012338] here?
Answer: Its EC50 is over 20 µM.

Question: With CNC(=O)c1cc2c(N[C@@H](c3ccc4c(c3)S(=O)(=O)CCC4)C(C)C)ncnc2[nH]1 (single isomer, unassigned) [ASAP-0012346] as the compound, how does the EC50 read?
Answer: The EC50 was over 20 µM.

Same assay, conditions: HeLa-ACE2 SARS-CoV-2 antiviral effect without P-gp inhibitor; read-out: ec90

Question: With CNC(=O)c1cccc(-c2cc3c(N[C@H](c4ccc5c(c4)S(=O)(=O)CCC5)C(C)C)ncnc3[nH]2)c1 (single isomer, unassigned) [ASAP-0012338] as the compound, how does the EC90 read?
Answer: Its EC90 is over 20 µM.

Question: Which EC90 does the source give for CNC(=O)c1cc2c(N[C@@H](c3ccc4c(c3)S(=O)(=O)CCC4)C(C)C)ncnc2[nH]1 (single isomer, unassigned) [ASAP-0012346] here?
Answer: The EC90 was over 20 µM.

System: not listed separately
Test: LogD
Details: pH 7.4; In vitro LogD

Question: For CNC(=O)c1cccc(-c2cc3c(N[C@H](c4ccc5c(c4)S(=O)(=O)CCC5)C(C)C)ncnc3[nH]2)c1 (single isomer, unassigned) [ASAP-0012338], which logd is on record?
Answer: Its logd is 3.8.

Question: Which logd does the source give for CNC(=O)c1cc2c(N[C@@H](c3ccc4c(c3)S(=O)(=O)CCC4)C(C)C)ncnc2[nH]1 (single isomer, unassigned) [ASAP-0012346] here?
Answer: The logd was 2.4.

System: not listed separately
Test: Hepatic microsomal stability, HLM
Format: in vitro ADME, human
Details: In vitro human liver microsomal stability

Question: With CNC(=O)c1cccc(-c2cc3c(N[C@H](c4ccc5c(c4)S(=O)(=O)CCC5)C(C)C)ncnc3[nH]2)c1 (single isomer, unassigned) [ASAP-0012338] as the compound, how does the clint read?
Answer: Its clint is 746.0 µL/min/mg.

Question: And the perc_remaining?
Answer: Its perc_remaining is 0.0%.

Question: What about the t_half of the same compound?
Answer: The t_half was 2.2 min.

Question: What does the source list for CNC(=O)c1cc2c(N[C@@H](c3ccc4c(c3)S(=O)(=O)CCC4)C(C)C)ncnc2[nH]1 (single isomer, unassigned) [ASAP-0012346]?
Answer: clint: 682.0 µL/min/mg; perc_remaining: 0.0%; t_half: 2.4 min

Same assay, conditions: In vitro human liver microsomal stability; no cofactor

Question: For CNC(=O)c1cccc(-c2cc3c(N[C@H](c4ccc5c(c4)S(=O)(=O)CCC5)C(C)C)ncnc3[nH]2)c1 (single isomer, unassigned) [ASAP-0012338], which perc_remaining_no_cofactor is on record?
Answer: Its perc_remaining_no_cofactor is 99.0%.

Question: For CNC(=O)c1cc2c(N[C@@H](c3ccc4c(c3)S(=O)(=O)CCC4)C(C)C)ncnc2[nH]1 (single isomer, unassigned) [ASAP-0012346], which perc_remaining_no_cofactor is on record?
Answer: The perc_remaining_no_cofactor was 94.0%.

System: not listed separately
Test: In vitro kinetic solubility
Details: In vitro kinetic solubility, ph 7.4

Question: For CNC(=O)c1cccc(-c2cc3c(N[C@H](c4ccc5c(c4)S(=O)(=O)CCC5)C(C)C)ncnc3[nH]2)c1 (single isomer, unassigned) [ASAP-0012338], which solubility_mean is on record?
Answer: Its solubility_mean is 13 µM (≈ 6.55 µg/mL).

Question: For CNC(=O)c1cc2c(N[C@@H](c3ccc4c(c3)S(=O)(=O)CCC4)C(C)C)ncnc2[nH]1 (single isomer, unassigned) [ASAP-0012346], which solubility_mean is on record?
Answer: Its solubility_mean is 397 µM (≈ 170 µg/mL).

System: not listed separately
Test: in vitro
Details: human, hela-ace2 cells, 50.0

Question: Which CC50 at 24 h does the source give for CNC(=O)c1cccc(-c2cc3c(N[C@H](c4ccc5c(c4)S(=O)(=O)CCC5)C(C)C)ncnc3[nH]2)c1 (single isomer, unassigned) [ASAP-0012338] here?
Answer: Its CC50 at 24 h is over 20 µM.

Question: With CNC(=O)c1cc2c(N[C@@H](c3ccc4c(c3)S(=O)(=O)CCC4)C(C)C)ncnc2[nH]1 (single isomer, unassigned) [ASAP-0012346] as the compound, how does the CC50 at 24 h read?
Answer: The CC50 at 24 h was over 20 µM.

System: not listed separately
Test: Permeability Papp (AB) MDR1/MDCKII
Details: In vitro MDR1-MDCKII permeability, A to B, no inhibitor

Question: With CNC(=O)c1cccc(-c2cc3c(N[C@H](c4ccc5c(c4)S(=O)(=O)CCC5)C(C)C)ncnc3[nH]2)c1 (single isomer, unassigned) [ASAP-0012338] as the compound, how does the papp_a_to_b_mean read?
Answer: The papp_a_to_b_mean was 0.502 ×10⁻⁶ cm/s.

Same assay, conditions: In vitro MDR1-MDCKII permeability, B to A, no inhibitor

Question: With CNC(=O)c1cc2c(N[C@@H](c3ccc4c(c3)S(=O)(=O)CCC4)C(C)C)ncnc2[nH]1 (single isomer, unassigned) [ASAP-0012346] as the compound, how does the papp_b_to_a_mean read?
Answer: Its papp_b_to_a_mean is 0.72 ×10⁻⁶ cm/s.

Same assay, conditions: In vitro MDR1-MDCKII permeability, no inhibitor

Question: For CNC(=O)c1cc2c(N[C@@H](c3ccc4c(c3)S(=O)(=O)CCC4)C(C)C)ncnc2[nH]1 (single isomer, unassigned) [ASAP-0012346], which efflux_ratio is on record?
Answer: The efflux_ratio was 21.1.

Same assay, conditions: In vitro MDR1-MDCKII permeability, recovery A to B, no inhibitor

Question: For CNC(=O)c1cccc(-c2cc3c(N[C@H](c4ccc5c(c4)S(=O)(=O)CCC5)C(C)C)ncnc3[nH]2)c1 (single isomer, unassigned) [ASAP-0012338], which perc_recovery_a_to_b_mean is on record?
Answer: The perc_recovery_a_to_b_mean was 61.5%.

Question: Which perc_recovery_a_to_b_mean does the source give for CNC(=O)c1cc2c(N[C@@H](c3ccc4c(c3)S(=O)(=O)CCC4)C(C)C)ncnc2[nH]1 (single isomer, unassigned) [ASAP-0012346] here?
Answer: The perc_recovery_a_to_b_mean was 74.6% and 66.3%.

Same assay, conditions: In vitro MDR1-MDCKII permeability, recovery B to A, no inhibitor

Question: Which perc_recovery_b_to_a_mean does the source give for CNC(=O)c1cc2c(N[C@@H](c3ccc4c(c3)S(=O)(=O)CCC4)C(C)C)ncnc2[nH]1 (single isomer, unassigned) [ASAP-0012346] here?
Answer: Its perc_recovery_b_to_a_mean is 68.8%.

Same assay, conditions: MDR1-MDCKII, recovery A to B, with inhibitor Verapamil

Question: With CNC(=O)c1cc2c(N[C@@H](c3ccc4c(c3)S(=O)(=O)CCC4)C(C)C)ncnc2[nH]1 (single isomer, unassigned) [ASAP-0012346] as the compound, how does the perc_recovery_a_to_b_inhibitor_mean read?
Answer: The perc_recovery_a_to_b_inhibitor_mean was 98.1%.

Same assay, conditions: MDR1-MDCKII, recovery B to A, with inhibitor Verapamil

Question: With CNC(=O)c1cc2c(N[C@@H](c3ccc4c(c3)S(=O)(=O)CCC4)C(C)C)ncnc2[nH]1 (single isomer, unassigned) [ASAP-0012346] as the compound, how does the perc_recovery_b_to_a_inhibitor_mean read?
Answer: Its perc_recovery_b_to_a_inhibitor_mean is 86.6%.

System: not listed separately
Test: Hepatic microsomal stability, MLM
Format: in vitro ADME
Details: In vitro mouse liver microsomal stability

Question: Which clint does the source give for CNC(=O)c1cccc(-c2cc3c(N[C@H](c4ccc5c(c4)S(=O)(=O)CCC5)C(C)C)ncnc3[nH]2)c1 (single isomer, unassigned) [ASAP-0012338] here?
Answer: Its clint is 197.0 µL/min/mg.

Question: And the perc_remaining?
Answer: The perc_remaining was 4.0%.

Question: What about the t_half of the same compound?
Answer: The t_half was 8.5 min.

Question: With CNC(=O)c1cc2c(N[C@@H](c3ccc4c(c3)S(=O)(=O)CCC4)C(C)C)ncnc2[nH]1 (single isomer, unassigned) [ASAP-0012346] as the compound, how does the clint read?
Answer: Its clint is 23.0 µL/min/mg.

Question: And the perc_remaining?
Answer: The perc_remaining was 69.0%.

Question: What about the t_half of the same compound?
Answer: Its t_half is 71.6 min.

Same assay, conditions: In vitro mouse liver microsomal stability, no cofactor

Question: For CNC(=O)c1cccc(-c2cc3c(N[C@H](c4ccc5c(c4)S(=O)(=O)CCC5)C(C)C)ncnc3[nH]2)c1 (single isomer, unassigned) [ASAP-0012338], which perc_remaining_no_cofactor is on record?
Answer: Its perc_remaining_no_cofactor is 106.0%.

Question: For CNC(=O)c1cc2c(N[C@@H](c3ccc4c(c3)S(=O)(=O)CCC4)C(C)C)ncnc2[nH]1 (single isomer, unassigned) [ASAP-0012346], which perc_remaining_no_cofactor is on record?
Answer: The perc_remaining_no_cofactor was 97.0%.
